Literature values, collected in patent US9376416B2, “Composition containing scirpusin B, and process for producing composition containing scirpusin B” (MORINAGA & CO., LTD., priority 2010, dated 2016).

Assays:
HIV = conditions: reported in Non-Patent Citation 1
[1] = reported in Non-Patent Citation 2
α-amylase = conditions: reported in Non-Patent Citation 3 (mouse α-amylase)
xanthine oxidase = xanthine oxidase (Homo sapiens, UniProt P47989); conditions: reported in Non-Patent Citation 4
Sequence of xanthine oxidase (P47989 whole entry, species assumed): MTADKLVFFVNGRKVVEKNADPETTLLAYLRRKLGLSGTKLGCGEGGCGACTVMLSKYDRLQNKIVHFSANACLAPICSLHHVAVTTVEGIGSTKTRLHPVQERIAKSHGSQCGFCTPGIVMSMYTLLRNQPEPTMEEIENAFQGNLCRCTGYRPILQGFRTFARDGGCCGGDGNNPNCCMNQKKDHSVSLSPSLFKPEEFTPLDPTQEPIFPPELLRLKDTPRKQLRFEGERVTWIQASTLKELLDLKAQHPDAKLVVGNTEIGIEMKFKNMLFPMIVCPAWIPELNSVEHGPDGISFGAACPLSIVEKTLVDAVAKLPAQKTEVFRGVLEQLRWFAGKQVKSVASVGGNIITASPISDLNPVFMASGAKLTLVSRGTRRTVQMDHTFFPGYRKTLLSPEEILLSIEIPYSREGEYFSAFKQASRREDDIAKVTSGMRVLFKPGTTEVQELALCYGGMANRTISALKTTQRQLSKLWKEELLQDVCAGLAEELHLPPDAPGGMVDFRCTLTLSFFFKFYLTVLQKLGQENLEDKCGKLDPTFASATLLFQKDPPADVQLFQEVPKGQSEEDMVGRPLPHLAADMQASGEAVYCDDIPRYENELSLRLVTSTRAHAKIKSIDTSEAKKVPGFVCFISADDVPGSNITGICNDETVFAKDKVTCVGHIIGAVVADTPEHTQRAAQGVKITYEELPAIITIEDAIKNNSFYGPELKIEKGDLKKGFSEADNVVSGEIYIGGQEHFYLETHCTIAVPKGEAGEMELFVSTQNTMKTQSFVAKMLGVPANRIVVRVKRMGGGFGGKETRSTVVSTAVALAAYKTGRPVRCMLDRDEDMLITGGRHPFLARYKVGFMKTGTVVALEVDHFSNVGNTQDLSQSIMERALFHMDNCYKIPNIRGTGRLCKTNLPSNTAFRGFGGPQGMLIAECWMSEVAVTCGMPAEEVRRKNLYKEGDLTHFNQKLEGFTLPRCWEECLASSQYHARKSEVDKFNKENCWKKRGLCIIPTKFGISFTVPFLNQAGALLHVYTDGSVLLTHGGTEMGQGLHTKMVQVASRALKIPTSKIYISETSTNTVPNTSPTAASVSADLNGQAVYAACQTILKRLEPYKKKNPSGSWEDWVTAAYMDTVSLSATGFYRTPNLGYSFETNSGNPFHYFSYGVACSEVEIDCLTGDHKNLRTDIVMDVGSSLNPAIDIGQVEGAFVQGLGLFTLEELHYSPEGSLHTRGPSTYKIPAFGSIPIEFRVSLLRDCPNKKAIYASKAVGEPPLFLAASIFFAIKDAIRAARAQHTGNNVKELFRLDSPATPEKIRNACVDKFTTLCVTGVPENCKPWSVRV

For `Oc1cc(O)cc(C2c3c(/C=C/c4ccc(O)c(O)c4)cc(O)cc3OC2c2ccc(O)c(O)c2)c1` (stereo not shown) [scirpusin B], the anti-HIV activity (HIV) is given as “has anti-HIV activity”, the “superoxide anion removal activity” value [1] is given as “has superoxide anion removal activity” and the “α-amylase activity inhibitory activity” value (α-amylase) is given as “has α-amylase activity inhibitory activity”. The “xanthine oxidase inhibitory activity” value (xanthine oxidase) was “has xanthine oxidase inhibitory activity”.
